Assay results: ChEMBL document CHEMBL2413077, “Anion inhibition studies of the α-carbonic anhydrase from the protozoan pathogen Trypanosoma cruzi, the causative agent of Chagas disease” (Bioorg Med Chem, 2013)

Molecular target: Trypanosoma cruzi
Format: organism-based, CL Brener
Conditions: sf9

In the case of `O=[Se](=O)(O)O` [SODIUM SELENATE], the Ki is reported as 660 µM.
In the case of `NS(=O)(=O)O` [SULFAMATE], the Ki is reported as 10600 µM.
Work on `[Cl-].[Na+]` [SODIUM CHLORIDE] yielded a Ki of 810 µM.
`[N-]=[N+]=[N-]` [SODIUM AZIDE] gave a Ki of 1120 µM.
With `O=[As](O)(O)c1ccccc1` [PHENYLARSONIC ACID] the Ki was 620 µM.
Work on `F[B-](F)(F)F.[Na+]` [SODIUM TETRAFLUOROBORATE] yielded a Ki greater than 100000 µM.
With `OB(O)c1ccccc1` [PHENYLBORONIC ACID] the Ki was 860 µM.
Work on `O=S(=O)([O-])[O-].[Na+].[Na+]` [SODIUM SULFATE ANHYDROUS] yielded a Ki of 6900 µM.
`[O-][Cl+3]([O-])([O-])O` [SODIUM PERCHLORATE] gave a Ki greater than 100000 µM.
For `O=C([O-])[O-].[Na+].[Na+]` [SODIUM CARBONATE], the Ki was 690 µM.
`O=S([O-])O.[Na+]` [SODIUM BISULFITE] gave a Ki of 910 µM.
`O=[Te](=O)(O)O` [SODIUM TELLURATE] gave a Ki of 710 µM.
`S` [SODIUM HYDROSULFIDE] showed a Ki of 78 µM.
Compound `O=S(=O)(O)OOS(=O)(=O)O` [SODIUM PERSULFATE] has a Ki of 840 µM.
In the case of `O=BOB(O)OB(O)OB=O` [SODIUM TETRABORATE], the Ki is reported as 24300 µM.
`N#C[SeH]` [SODIUM SELENOCYANATE] gave a Ki of 780 µM.
For `O=[N+]([O-])[O-].[Na+]` [SODIUM NITRATE], the Ki was 770 µM.
For `O=S(=O)(O)ONOS(=O)(=O)O` [SODIUM IMINODISULFATE], the Ki was 7100 µM.
For `O=S(=O)(O)OS(=O)(=O)O` [SODIUM PYROSULFATE], the Ki was 760 µM.
`O=C([O-])O.[Na+]` [SODIUM BICARBONATE] showed a Ki of 580 µM.
For `[Br-].[Na+]` [SODIUM BROMIDE], the Ki was 730 µM.
Compound `N#CO` [SODIUM CYANATE] has a Ki of 80 µM.
Work on `O=NO` [SODIUM NITRITE] yielded a Ki of 700 µM.
`[I-].[Na+]` [SODIUM IODIDE] gave a Ki of 44 µM.
With `CCN(CC)C(=S)S` [DITIOCARB SODIUM] the Ki was 5 µM.
`[F-].[Na+]` [SODIUM FLUORIDE] showed a Ki of 900 µM.
`NS(N)(=O)=O` [SULFAMIDE] showed a Ki of 120 µM.
